According to US9452997B2, “Piperidine and piperazine derivatives as autotaxin inhibitors” (Merck Patent GmbH, priority 2009, dated 2016):

Target: T1, Recombinant autotaxin (Homo sapiens, UniProt Q13822)
T1 construct: made in house; host or cells: Hi5 insect cells (baculovirus)
Assay: Autotaxin assay (Amplex Red, LPC substrate)
Format: biochemical
Details: recombinant autotaxin, LPC substrate, Amplex Red detection; values given as upper bounds
In short: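 Recombinant autotaxin (Hi5 baculovirus, 16 ng) pre-incubated with compound 30 min at 22° C, then reacted with 75 μM egg LPC for 90 min at 37° C. Choline released is coupled to H2O2 and Amplex Red fluorescence (ex 485/em 612 nm). IC50 from ten 1:3 dilutions from 30 μM, duplicates, normalised to 500 μM C14 LPA.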

Compound	IC50 [µM]
O=C(OCc1ccc(OC(F)(F)F)c(Cl)c1)N1CCC(N2CCN(C(=O)c3ccc4[nH]nnc4c3)CC2)CC1 [Compound 143, 4-[4-(1H-Benzotriazole-5-carbonyl)-piperazin-1-yl]-piperidine-1-carboxylic acid 3-chloro-4-trifluoromethoxy-benzyl ester]	< 1
O=C(OCc1c(F)c(F)c(C(F)(F)F)c(F)c1F)N1CCC(N2CCN(C(=O)c3ccc4[nH]nnc4c3)CC2)CC1 [Compound 144, 4-[4-(1H-Benzotriazole-5-carbonyl)-piperazin-1-yl]-piperidine-1-carboxylic acid 2,3,5,6-tetrafluoro-4-trifluoromethyl-benzyl ester]	< 1
O=C(OCc1ccc(Cl)c(OC(F)(F)F)c1)N1CCN(C2CCN(C(=O)c3ccc4[nH]nnc4c3)CC2)CC1 [Compound 145, 4-[1-(1H-Benzotriazole-5-carbonyl)-piperidin-4-yl]-piperazine-1-carboxylic acid 4-chloro-3-trifluoromethoxy-benzyl ester]	< 10
O=C(OCc1cc(Cl)cc(Br)c1)N1CCN(C2CCN(C(=O)c3ccc4[nH]nnc4c3)CC2)CC1 [Compound 146, 4-[1-(1H-Benzotriazole-5-carbonyl)-piperidin-4-yl]-piperazine-1-carboxylic acid 3-bromo-5-chloro-benzyl ester]	< 1
Cc1cc(C)cc(COC(=O)N2CCN(C3CCN(C(=O)c4ccc5[nH]nnc5c4)CC3)CC2)c1 [Compound 147, 4-[1-(1H-Benzotriazole-5-carbonyl)-piperidin-4-yl]-piperaizne-1-carboxylic acid 3,5-dimethyl-benzyl ester]	< 1
O=C(OCc1cc(Br)cc(Br)c1)N1CCN(C2CCN(C(=O)c3ccc4[nH]nnc4c3)CC2)CC1 [Compound 148, 4-[1-(1H-Benzotriazole-5-carbonyl)-piperidin-4-yl]-piperazine-1-carboxylic acid 3,5-dibromo-benzyl ester]	< 1
CSc1ccc(COC(=O)N2CCN(C3CCN(C(=O)c4ccc5[nH]nnc5c4)CC3)CC2)cc1 [Compound 149, 4-[1-(1H-Benzotriazole-5-carbonyl)-piperidin-4-yl]-piperazine-1-carboxylic acid 4-methylsulfanyl-benzyl ester]	< 10
COc1cc(COC(=O)N2CCN(C3CCN(C(=O)c4ccc5[nH]nnc5c4)CC3)CC2)cc(OC)c1 [Compound 150, 4-[1-(1H-Benzotriazole-5-carbonyl)-piperidin-4-yl]-piperazine-1-carboxylic acid 3,5-dimethoxy-benzyl ester]	< 10
CCc1ccc(COC(=O)N2CCN(C3CCN(C(=O)c4ccc5[nH]nnc5c4)CC3)CC2)cc1 [Compound 151, 4-[1-(1H-Benzotriazole-5-carbonyl)-piperidin-4-yl]-piperazine-1-carboxylic acid 4-ethyl-benzyl ester]	< 1
O=C(OCc1cc(F)cc(Cl)c1)N1CCN(C2CCN(C(=O)c3ccc4[nH]nnc4c3)CC2)CC1 [Compound 152, 4-[1-(1H-Benzotriazole-5-carbonyl)-piperidin-4-yl]-piperazine-1-carboxylic acid 3-chloro-5-fluoro-benzyl ester]	< 1
O=C(OCc1cc(C(F)(F)F)cc(C(F)(F)F)c1)N1CCN(C2CCN(S(=O)(=O)c3ccc4[nH]c(=O)sc4c3)CC2)CC1 [Compound 153, 4-[1-(2-Oxo-2,3-dihydro-benzothiazole-6-sulfonyl)-piperidin-4-yl]-piperazine-1-carboxylic acid 3,5-bis-trifluoromethyl-benzyl ester]	< 10
O=C(OCc1cc(F)cc(Br)c1)N1CCN(C2CCN(C(=O)c3ccc4[nH]nnc4c3)CC2)CC1 [Compound 154, 4-[1-(1H-Benzotriazole-5-carbonyl)-piperidin-4-yl]-piperazine-1-carboxylic acid 3-bromo-5-fluoro-benzyl ester]	< 1
O=C(OCc1ccc(Br)cc1)N1CCN(C2CCN(C(=O)c3ccc4[nH]nnc4c3)CC2)CC1 [Compound 155, 4-[1-(1H-Benzotriazole-5-carbonyl)-piperidin-4-yl]-piperazine-1-carboxylic acid 4-bromo-benzyl ester]	< 1
O=C(OCc1ccc(Br)cc1F)N1CCN(C2CCN(C(=O)c3ccc4[nH]nnc4c3)CC2)CC1 [Compound 156, 4-[1-(1H-Benzotriazole-5-carbonyl)-piperidin-4-yl]-piperazine-1-carboxylic acid 4-bromo-2-fluoro-benzyl ester]	< 10
O=C(OCc1c(F)cc(Br)cc1F)N1CCN(C2CCN(C(=O)c3ccc4[nH]nnc4c3)CC2)CC1 [Compound 157, 4-[1-(1H-Benzotriazole-5-carbonyl)-piperidin-4-yl]-piperazine-1-carboxylic acid 4-bromo-2,6-difluoro-benzyl ester]	< 10
O=C(OCc1ccc(C(F)(F)F)c(F)c1)N1CCN(C2CCN(C(=O)c3ccc4[nH]nnc4c3)CC2)CC1 [Compound 158, 4-[1-(1H-Benzotriazole-5-carbonyl)-piperidin-4-yl]-piperazine-1-carboxylic acid 3-fluoro-4-trifluoromethyl-benzyl ester]	< 1
O=C(c1ccc2[nH]nnc2c1)N1CCC(N2CCN(C(=O)c3cc4cc(Br)ccc4o3)CC2)CC1 [Compound 159, (1H-Benzotriazol-5-yl)-{4-[4-(5-bromo-benzofuran-2-carbonyl)-piperazin-1-yl]-piperidin-1-yl}-methanone]	< 10
O=C(COc1ccc(OC(F)(F)F)cc1)N1CCN(C2CCN(C(=O)c3ccc4[nH]nnc4c3)CC2)CC1 [Compound 160, 1-{4-[1-(1H-Benzotriazole-5-carbonyl)-piperidin-4-yl]-piperazin-1-yl}-2-(4-trifluoromethoxy-phenoxy)-ethanone]	< 10

More lines, now with the values ahead:

IC50 [µM]	Compound
< 1	O=C(OCc1cc(C(F)(F)F)cc(C(F)(F)F)c1)N1CCN(C2CCN(C(=O)c3ccc4[nH]c(=S)[nH]c4c3)CC2)CC1 [Compound 161, 4-[1-(2-Thioxo-2,3-dihydro-1H-benzoimidazole-5-carbonyl)-piperidin-4-yl]-piperazine-1-carboxylic acid 3,5-bis-trifluoromethyl-benzyl ester]
< 1	O=C(OCc1cc(C(F)(F)F)cc(C(F)(F)F)c1)N1CCC(N2CCN(C(=O)c3ccc4[nH]nnc4c3)CC2)CC1 [Compound 162, 4-[4-(1H-Benzotriazole-5-carbonyl)-piperazin-1-yl]-piperidine-1-carboxylic acid 3,5-bis-trifluoromethyl-benzyl ester]
< 1	O=C(OCc1cc(C(F)(F)F)cc(C(F)(F)F)c1)N1CCN(C2CCN(C(=O)c3ccc4[nH]c(=O)sc4c3)CC2)CC1 [Compound 163, 4-[1-(2-Oxo-2,3-dihydro-benzothiazole-6-carbonyl)-piperidin-4-yl]-piperazine-1-carboxylic acid 3,5-bis-trifluoromethyl-benzyl ester]
< 10	O=C(CC(=O)N1CCC(N2CCN(C(=O)c3ccc4[nH]nnc4c3)CC2)CC1)c1ccc(C(F)(F)F)cc1 [Compound 164, 1-{4-[4-(1H-Benzotriazole-5-carbonyl)-piperazin-1-yl]-piperidin-1-yl}-3-(4-trifluoromethyl-phenyl)-propane-1,3-dione]
< 1	O=C(OCc1cc(F)c(F)c(C(F)(F)F)c1)N1CCN(C2CCN(C(=O)c3ccc4[nH]nnc4c3)CC2)CC1 [Compound 165, 4-[1-(1H-Benzotriazole-5-carbonyl)-piperidin-4-yl]-piperazine-1-carboxylic acid 3,4-difluoro-5-trifluoromethyl-benzyl ester]
< 1	O=C(OCc1ccc(OC(F)(F)F)c(Br)c1)N1CCN(C2CCN(C(=O)c3ccc4[nH]nnc4c3)CC2)CC1 [Compound 166, 4-[1-(1H-Benzotriazole-5-carbonyl)-piperidin-4-yl]-piperazine-1-carboxylic acid 3-bromo-4-trifluoromethoxy-benzyl ester]
< 1	O=C(OCc1ccc(OC(F)F)cc1)N1CCN(C2CCN(C(=O)c3ccc4[nH]nnc4c3)CC2)CC1 [Compound 167, 4-[1-(1H-Benzotriazole-5-carbonyl)-piperidin-4-yl]-piperazine-1-carboxylic acid 4-difluoromethoxy-benzyl ester]
< 1	O=C(OCc1ccc(SC(F)F)cc1)N1CCN(C2CCN(C(=O)c3ccc4[nH]nnc4c3)CC2)CC1 [Compound 168, 4-[1-(1H-Benzotriazole-5-carbonyl)-piperidin-4-yl]-piperazine-1-carboxylic acid 4-difluoromethylsulfanyl-benzyl ester]
< 1	C[C@@H](OC(=O)N1CCN(C2CCN(C(=O)c3ccc4[nH]nnc4c3)CC2)CC1)c1cc(C(F)(F)F)cc(C(F)(F)F)c1 [Compound 169, 4-[1-(1H-Benzotriazole-5-carbonyl)-piperidin-4-yl]-piperazine-1-carboxylic acid (R)-1-(3,5-bis-trifluoromethyl-phenyl)-ethyl ester]
< 10	Cc1ccc(C(OC(=O)N2CCN(C3CCN(C(=O)c4ccc5[nH]nnc5c4)CC3)CC2)(C(F)(F)F)C(F)(F)F)cc1 [Compound 170, 4-[1-(1H-Benzotriazole-5-carbonyl)-piperidin-4-yl]-piperazine-1-carboxylic acid 2,2,2-trifluoro-1-p-tolyl-1-trifluoromethyl-ethyl ester]
< 10	C[C@H](OC(=O)N1CCN(C2CCN(C(=O)c3ccc4[nH]nnc4c3)CC2)CC1)c1cc(C(F)(F)F)cc(C(F)(F)F)c1 [Compound 171, 4-[1-(1H-Benzotriazole-5-carbonyl)-piperidin-4-yl]-piperazine-1-carboxylic acid (S)-1-(3,5-bis-trifluoromethyl-phenyl)-ethyl ester]
< 10	CC(OC(=O)N1CCN(C2CCN(C(=O)c3ccc4[nH]nnc4c3)CC2)CC1)c1cc(C(F)(F)F)cc(C(F)(F)F)c1 (stereo not drawn) [Compound 172, 4-[1-(1H-Benzotriazole-5-carbonyl)-piperidin-4-yl]-piperazine-1-carboxylic acid 1-(3,5-bis-trifluoromethyl-phenyl)-ethyl ester]
